Reference: ChEMBL document CHEMBL1201862, “PubChem BioAssay data set” (2004)
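Cultured in 96-well plates, cells were exposed to test compound for 48 hours across five concentrations. GI50: concentration for 50% inhibition of growth.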 The source made the active and inactive calls. No stated cut-off is given here; in the data, active = GI50 up to about 1.1 µM and inactive = higher.

Experiments:
Assay in all cases: NCI tumour cell line growth inhibition, 48 h
A498 = test system: A498
CAKI-1 = test system: CAKI-1
COLO 205 = test system: COLO 205
DU-145 = test system: DU-145
HCC 2998 = test system: HCC 2998
HCT-116 = test system: HCT-116
HCT-15 = test system: HCT-15
HOP-92 = test system: HOP-92
HT-29 = test system: HT-29
IGROV-1 = test system: IGROV-1
K562 = test system: K562
KM12 = test system: KM12
LOX IMVI = test system: LOX IMVI
M14 = test system: M14
MCF7 = test system: MCF7
MDA-MB-231 = test system: MDA-MB-231
MDA-MB-435 = test system: MDA-MB-435
MOLT-4 = test system: MOLT-4
Malme-3M = test system: Malme-3M
NCI-H226 = test system: NCI-H226
NCI-H23 = test system: NCI-H23
NCI-H460 = test system: NCI-H460
NCI/ADR-RES = test system: NCI/ADR-RES
OVCAR-8 = test system: OVCAR-8
SF-295 = test system: SF-295
SK-MEL-28 = test system: SK-MEL-28
SK-MEL-5 = test system: SK-MEL-5
SK-OV-3 = test system: SK-OV-3
SNB-75 = test system: SNB-75
T47D = test system: T47D
TK-10 = test system: TK-10
UACC-62 = test system: UACC-62
UO-31 = test system: UO-31
786-0 = test system: 786-0
A549 = test system: A549
ACHN = test system: ACHN
CCRF-CEM = test system: CCRF-CEM
EKVX = test system: EKVX
Hs-578T = test system: Hs-578T
MDA-N = test system: MDA-N
OVCAR-4 = test system: OVCAR-4
PC-3 = test system: PC-3
RPMI-8226 = test system: RPMI-8226
RXF 393 = test system: RXF 393
SF-268 = test system: SF-268
SN12C = test system: SN12C
SNB-19 = test system: SNB-19
SW-620 = test system: SW-620
U-251 = test system: U-251
UACC-257 = test system: UACC-257
HL-60 = test system: HL-60
HOP-62 = test system: HOP-62
OVCAR-3 = test system: OVCAR-3
OVCAR-5 = test system: OVCAR-5
SF-539 = test system: SF-539

OCC1NC(CO)C(O)C1O (stereo not given)
GI50 (A498): > 100 µM (inactive) | GI50 (CAKI-1): > 100 µM (inactive) | GI50 (COLO 205): > 100 µM (inactive) | GI50 (DU-145): > 100 µM (inactive) | GI50 (HCC 2998): > 100 µM (inactive) | GI50 (HCT-116): > 100 µM (inactive) | GI50 (HCT-15): > 100 µM | GI50 (HOP-92): > 100 µM (inactive) | GI50 (HT-29): > 100 µM (inactive) | GI50 (IGROV-1): > 100 µM (inactive) | GI50 (K562): > 100 µM (inactive) | GI50 (KM12): > 100 µM (inactive) | GI50 (LOX IMVI): > 100 µM (inactive) | GI50 (M14): > 100 µM (inactive) | GI50 (MCF7): > 100 µM (inactive) | GI50 (MDA-MB-231): > 100 µM (inactive) | GI50 (MDA-MB-435): > 100 µM (inactive) | GI50 (MOLT-4): > 100 µM (inactive) | GI50 (Malme-3M): > 100 µM (inactive) | GI50 (NCI-H226): > 100 µM (inactive) | GI50 (NCI-H23): > 100 µM (inactive) | GI50 (NCI-H460): > 100 µM (inactive) | GI50 (NCI/ADR-RES): > 100 µM (inactive) | GI50 (OVCAR-8): > 100 µM (inactive) | GI50 (SF-295): > 100 µM (inactive) | GI50 (SK-MEL-28): > 100 µM (inactive) | GI50 (SK-MEL-5): > 100 µM (inactive) | GI50 (SK-OV-3): > 100 µM (inactive) | GI50 (SNB-75): > 100 µM (inactive) | GI50 (T47D): > 100 µM (inactive) | GI50 (TK-10): > 100 µM (inactive) | GI50 (UACC-62): > 100 µM (inactive) | GI50 (UO-31): > 100 µM (inactive)

COc1ccc2c(ccc3c(C(=O)NCCCN(C)CCCNC(=O)c4cn(C)c5c4ccc4cc(OC)ccc45)cn(C)c32)c1
GI50 (786-0): 1.49 µM (inactive) | GI50 (A498): 28.6 µM (inactive) | GI50 (A549): 1.43 µM (inactive) | GI50 (ACHN): 1.66 µM (inactive) | GI50 (CAKI-1): 1.64 µM (inactive) | GI50 (CCRF-CEM): 1.07 µM (active) | GI50 (COLO 205): 2.11 µM (inactive) | GI50 (DU-145): 1.67 µM (inactive) | GI50 (EKVX): 1.57 µM (inactive) | GI50 (HCC 2998): 1.61 µM (inactive) | GI50 (HCT-116): 1.73 µM (inactive) | GI50 (HCT-15): 1.32 µM | GI50 (Hs-578T): 2.33 µM (inactive) | GI50 (IGROV-1): 1.53 µM (inactive) | GI50 (K562): 0.403 µM (active) | GI50 (KM12): 1.56 µM (inactive) | GI50 (LOX IMVI): 2.26 µM (inactive) | GI50 (M14): 1.59 µM (inactive) | GI50 (MDA-MB-435): 1.89 µM (inactive) | GI50 (MDA-N): 1.53 µM (inactive) | GI50 (MOLT-4): 2.23 µM (inactive) | GI50 (NCI-H23): 1.58 µM (inactive) | GI50 (NCI-H460): 1.47 µM (inactive) | GI50 (OVCAR-4): 1.71 µM (inactive) | GI50 (PC-3): 1.55 µM (inactive) | GI50 (RPMI-8226): 2.35 µM (inactive) | GI50 (RXF 393): 2.12 µM (inactive) | GI50 (SF-268): 1.78 µM (inactive) | GI50 (SF-295): 2.15 µM (inactive) | GI50 (SK-MEL-28): 1.77 µM (inactive) | GI50 (SK-MEL-5): 1.9 µM (inactive) | GI50 (SN12C): 1.57 µM (inactive) | GI50 (SNB-19): 1.79 µM (inactive) | GI50 (SW-620): 1.83 µM (inactive) | GI50 (U-251): 1.92 µM (inactive) | GI50 (UACC-257): 1.57 µM (inactive) | GI50 (UACC-62): 1.77 µM (inactive) | GI50 (UO-31): 1.66 µM (inactive)

O=c1c(Br)cc2c(-c3ccccc3)c3cc(Br)c(O)c(Br)c3oc-2c1Br
GI50 (786-0): > 100 µM (inactive) | GI50 (A498): 27.3 µM (inactive) | GI50 (A549): > 100 µM (inactive) | GI50 (ACHN): > 100 µM (inactive) | GI50 (CAKI-1): > 100 µM (inactive) | GI50 (CCRF-CEM): > 100 µM (inactive) | GI50 (COLO 205): 51.2 µM (inactive) | GI50 (DU-145): > 100 µM (inactive) | GI50 (EKVX): > 100 µM (inactive) | GI50 (HCC 2998): 83.8 µM (inactive) | GI50 (HCT-116): 44.8 µM (inactive) | GI50 (HCT-15): 56 µM | GI50 (HL-60): 51.6 µM (inactive) | GI50 (HOP-62): > 100 µM (inactive) | GI50 (HOP-92): > 100 µM (inactive) | GI50 (HT-29): 21.7 µM (inactive) | GI50 (Hs-578T): > 100 µM (inactive) | GI50 (IGROV-1): > 100 µM (inactive) | GI50 (K562): > 100 µM (inactive) | GI50 (KM12): > 100 µM (inactive) | GI50 (LOX IMVI): 37.4 µM (inactive) | GI50 (M14): > 100 µM (inactive) | GI50 (MCF7): 79.3 µM (inactive) | GI50 (MDA-MB-231): > 100 µM (inactive) | GI50 (MDA-MB-435): > 100 µM (inactive) | GI50 (MDA-N): > 100 µM (inactive) | GI50 (MOLT-4): 29.1 µM (inactive) | GI50 (Malme-3M): > 100 µM (inactive) | GI50 (NCI-H226): > 100 µM (inactive) | GI50 (NCI-H23): > 100 µM (inactive) | GI50 (NCI-H460): 77.4 µM (inactive) | GI50 (NCI/ADR-RES): > 100 µM (inactive) | GI50 (OVCAR-3): > 100 µM (inactive) | GI50 (OVCAR-4): 22.3 µM (inactive) | GI50 (OVCAR-5): > 100 µM (inactive) | GI50 (OVCAR-8): > 100 µM (inactive) | GI50 (PC-3): > 100 µM (inactive) | GI50 (RPMI-8226): > 100 µM (inactive) | GI50 (RXF 393): > 100 µM (inactive) | GI50 (SF-268): > 100 µM (inactive) | GI50 (SF-295): 84.9 µM (inactive) | GI50 (SF-539): 39.5 µM (inactive) | GI50 (SK-MEL-28): > 100 µM (inactive) | GI50 (SK-MEL-5): > 100 µM (inactive) | GI50 (SK-OV-3): 48.4 µM (inactive) | GI50 (SN12C): > 100 µM (inactive) | GI50 (SNB-19): > 100 µM (inactive) | GI50 (SW-620): > 100 µM (inactive) | GI50 (T47D): > 100 µM (inactive) | GI50 (TK-10): > 100 µM (inactive) | GI50 (U-251): > 100 µM (inactive) | GI50 (UACC-257): > 100 µM (inactive) | GI50 (UACC-62): > 100 µM (inactive) | GI50 (UO-31): > 100 µM (inactive)
